Test results published in patent US8524726B2, “Amido derivatives and their use as positive allosteric modulators of metabotropic glutamate receptors” (Addex Pharma, SA, priority 2007, dated 2013).

How the values were obtained:
[1] = target: T1, recombinant human mGluR4a receptors (Homo sapiens, UniProt Q14833); assay: Fluorescent cell based Ca2+ mobilization assay (FLIPR) on HEK-293 cells expressing human mGluR4; settings: HEK-293 cells expressing hmGluR4, Fluo-4, potentiation of EC25 glutamate; mean of at least three independent experiments in duplicate; read-out: Ca2+ Flux (mean EC50)
T1 construct: expressed in transfected cells
T1 sequence (Q14833 33-912): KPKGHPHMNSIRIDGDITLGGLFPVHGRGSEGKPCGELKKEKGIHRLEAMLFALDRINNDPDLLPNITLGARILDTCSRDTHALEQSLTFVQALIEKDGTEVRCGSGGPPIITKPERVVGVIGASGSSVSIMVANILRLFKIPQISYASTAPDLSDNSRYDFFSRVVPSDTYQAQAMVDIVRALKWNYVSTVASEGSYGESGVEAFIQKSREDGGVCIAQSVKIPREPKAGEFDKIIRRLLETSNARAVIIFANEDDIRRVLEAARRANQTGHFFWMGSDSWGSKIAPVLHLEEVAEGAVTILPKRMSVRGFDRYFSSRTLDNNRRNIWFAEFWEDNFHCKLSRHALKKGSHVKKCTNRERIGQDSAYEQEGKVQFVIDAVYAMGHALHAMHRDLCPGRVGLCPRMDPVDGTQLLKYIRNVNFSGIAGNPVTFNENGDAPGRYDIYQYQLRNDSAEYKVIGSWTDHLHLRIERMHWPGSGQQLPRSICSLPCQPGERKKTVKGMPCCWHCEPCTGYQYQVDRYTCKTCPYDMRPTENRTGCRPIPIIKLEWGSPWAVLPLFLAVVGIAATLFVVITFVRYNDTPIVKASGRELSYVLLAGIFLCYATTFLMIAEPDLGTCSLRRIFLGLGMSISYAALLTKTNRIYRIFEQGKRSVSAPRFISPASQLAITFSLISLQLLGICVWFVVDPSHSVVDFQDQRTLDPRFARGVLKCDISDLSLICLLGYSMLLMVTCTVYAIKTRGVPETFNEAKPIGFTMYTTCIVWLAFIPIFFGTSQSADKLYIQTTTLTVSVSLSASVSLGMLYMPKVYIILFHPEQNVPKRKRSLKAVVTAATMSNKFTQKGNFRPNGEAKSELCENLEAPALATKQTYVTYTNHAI
Description: mGluR4 Assay on HEK-Expressing Human mGluR4
Their activity was examined on recombinant human mGluR4a receptors by detecting changes in intracellular Ca^2+ concentration, using the fluorescent Ca^2+-sensitive dye Fluo-4-(AM) and a Fluorometric Imaging Plate Reader (FLIPR, Molecular Devices, Sunnyvale, Calif.)
Transfection and Cell Culture
The cDNA encoding the human metabotropic glutamate receptor (hmGluR4), (accession number NM_000841.1, NCBI Nucleotide database browser), was subcloned into an expression vector containing also the hygromycin resistance gene. In parallel, the cDNA encoding a G protein allowing redirection of the activation signal to intracellular calcium flux was subcloned into a different expression vector containing also the puromycin resistance gene. […] Positive cellular clones expressing hmGluR4 were identified in a functional assay measuring changes in calcium fluxes in response to glutamate or selective known mGluR4 orthosteric agonists and antagonists
HEK-293 cells expressing hmGluR4 were maintained in media containing DMEM, dialyzed Fetal Calf Serum (10%), Glutamax™ (2 mM), Penicillin (100 units/ml), Streptomycin (100 μg/ml), Geneticin (100 μg/ml) and Hygromycin-B (40 μg/ml) and puromycin (1 μg/ml) at 37° C./5% CO2.
Fluorescent Cell Based-Ca^2+ Mobilization Assay
Human mGluR4 HEK-293 cells were plated out 24 hours prior to FLIPR^384 assay in black-walled, clear-bottomed, poly-L-ornithine-coated 384-well plates at a density of 25,000 cells/well in a glutamine/glutamate free DMEM medium containing foetal bovine serum (10%), penicillin (100 units/ml) and streptomycin (100 μg/ml) at 37° C./5% CO2.
On the day of the assay, the medium was aspirated and the cells were loaded with a 3 μM solution of Fluo-4-AM (LuBioScience, Lucerne, Switzerland) in 0.03% pluronic acid. After 1 hour at 37° C./5% CO2, the non incorporated dye was removed by washing cell plate with the assay buffer and the cells were left in the dark at room temperature for six hours before testing. All assays were performed in a pH 7.4 buffered-solution containing 20 mM HEPES, 143 mM NaCl, 6 mM KCl, 1 mM MgSO4, 1 mM CaCl2, 0.125 mM sulfapyrazone, 0.1% glucose.
After 10 s of basal fluorescence recording, various concentrations of the compounds of the invention were added to the cells. Changes in fluorescence levels were first monitored for 180 s in order to detect any agonist activity of the compounds. Then the cells were stimulated by an EC25 glutamate concentration for an additional 110 s in order to measure enhancing activities of the compounds of the invention. EC25 glutamate concentration is the concentration giving 25% of the maximal glutamate response.
The concentration-response curves of representative compounds of the present invention were generated using the Prism GraphPad software (Graph Pad Inc, San Diego, USA). The curves were fitted to a four-parameter logistic equation: (Y=Bottom+(Top-Bottom)/(1+10^((Log EC50−X)*Hill Slope) allowing determination of EC50 values.

SMILES	EC50 [1]	melting point
O=C(Nc1cccc(Cl)c1)c1cccs1 [Compound 1-2, N-(3-Chlorophenyl)thiophene-2-carboxamide]	1 to 10 µM	139 to 140 °C
O=C(Nc1cccc(Cl)c1)c1ccccn1 [Compound 1-3, N-(3-Chlorophenyl)picolinamide]	< 1 µM	
O=C(Nc1cccc(F)c1)c1ccccn1 [Compound 1-4, N-(3-Fluorophenyl)picolinamide]		74 to 75 °C
O=C(Nc1cccc(Cl)c1)c1ccc[nH]1 [Compound 1-5, N-(3-Chlorophenyl)-1H-pyrrole-2-carboxamide]	1 to 10 µM	138 to 140 °C
O=C(COc1cccc(NC(=O)c2ccco2)c1)c1ccc(F)cc1 [Compound 2-2, Furan-2-carboxylic acid {3-[2-(4-fluoro-phenyl)-2-oxo-ethoxy]-phenyl}-amide]		148 to 149 °C
COc1cccc(NC(=O)c2csc(C)n2)c1 [Compound 2-4, N-(3-Methoxyphenyl)-2-methylthiazole-4-carboxamide]	1 to 10 µM	87 to 89 °C
COc1cccc(NC(=O)c2nccs2)c1 [Compound 2-5, N-(3-Methoxyphenyl)thiazole-2-carboxamide]	1 to 10 µM	53 to 57 °C
O=C(COc1cccc(NC(=O)c2ccccn2)c1)c1cccc(Cl)c1 [Compound 2-7, N-(3-(2-(3-Chlorophenyl)-2-oxoethoxy)phenyl)picolinamide]	1 to 10 µM	139 to 140 °C
O=C(Nc1cccc(OCCCc2ccccc2)c1)c1ccccn1 [Compound 2-8, N-(3-(3-Phenylpropoxy)phenyl)picolinamide]	1 to 10 µM	49 to 51 °C
COc1ccccc1C(=O)COc1cccc(NC(=O)c2ccccn2)c1 [Compound 2-9, N-(3-(2-(2-Methoxyphenyl)-2-oxoethoxy)phenyl)picolinamide]	1 to 10 µM	136 to 137 °C
COc1cccc(C(=O)COc2cccc(NC(=O)c3ccccn3)c2)c1 [Compound 2-10, N-(3-(2-(3-Methoxyphenyl)-2-oxoethoxy)phenyl)picolinamide]	1 to 10 µM	114.5 to 115.5 °C
O=C(COc1cccc(NC(=O)c2ccccn2)c1)c1cccc(F)c1 [Compound 2-11, N-(3-(2-(3-Fluorophenyl)-2-oxoethoxy)phenyl)picolinamide]	1 to 10 µM	118 to 121 °C
O=C(Nc1cccc(OCC(=O)c2ccccc2Cl)c1)c1ccccn1 [Compound 2-12, N-(3-(2-(2-Chlorophenyl)-2-oxoethoxy)phenyl)picolinamide]	1 to 10 µM	
COc1cccc(NC(=O)c2cc(C)on2)c1 [Compound 2-13, N-(3-Methoxyphenyl)-5-methylisoxazole-3-carboxamide]	1 to 10 µM	98 to 101 °C
COc1cc(NC(=O)c2ccccn2)ccc1F [Compound 2-14, N-(4-Fluoro-3-methoxyphenyl)picolinamide]	< 1 µM	
O=C(Nc1cccc(OCC(=O)c2ccccc2F)c1)c1ccccn1 [Compound 2-15, N-(3-(2-(2-Fluorophenyl)-2-oxoethoxy)phenyl)picolinamide]	1 to 10 µM	98 to 101 °C
COc1cccc(NC(=O)c2ccncn2)c1 [Compound 2-16, N-(3-Methoxyphenyl)pyrimidine-4-carboxamide]	1 to 10 µM	119 to 122 °C
COc1cc(NC(=O)c2cccc(F)n2)ccc1F [Compound 2-17, 6-Fluoro-N-(4-fluoro-3-methoxyphenyl)picolinamide]	1 to 10 µM	124 to 125 °C
COc1cc(NC(=O)c2nccs2)ccc1F [Compound 2-18, N-(4-Fluoro-3-methoxyphenyl)thiazole-2-carboxamide]	1 to 10 µM	103 to 105 °C

Further lines, results first:

EC50 [1]	melting point	SMILES
< 1 µM	195 to 197 °C	O=C(Nc1ccc(Oc2ncccn2)c(Cl)c1)c1ccccn1 [Compound 3-2, N-(3-Chloro-4-(pyrimidin-2-yloxy)phenyl)picolinamide]
	142 to 150 °C	Cc1nc(C(=O)Nc2ccc(Oc3ncccn3)c(Cl)c2)cs1 [Compound 3-3, N-(3-Chloro-4-(pyrimidin-2-yloxy)phenyl)-2-methylthiazole-4-carboxamide]
1 to 10 µM	154 °C	O=C(Nc1ccc(Oc2ncccn2)c(Cl)c1)c1nccs1 [Compound 3-4, N-(3-Chloro-4-(pyrimidin-2-yloxy)phenyl)thiazole-2-carboxamide]
< 1 µM	254 to 260 °C	O=C(Nc1ccc(Oc2ccccn2)c(Cl)c1)c1ccccn1 [Compound 3-5, N-(3-Chloro-4-(pyridin-2-yloxy)phenyl)picolinamide]
	102 to 104 °C	O=C(Nc1ccc(Oc2cc(F)ccc2F)c(Cl)c1)c1ccccn1 [Compound 3-6, N-(3-Chloro-4-(2,5-difluorophenoxy)phenyl)picolinamide]
1 to 10 µM	92 to 94 °C	O=C(Nc1ccc(Oc2ccc(C(F)(F)F)cn2)c(Cl)c1)c1ccccn1 [Compound 3-8, N-(3-Chloro-4-(5-(trifluoromethyl)pyridin-2-yloxy)phenyl)picolinamide]
	203 to 205 °C	COc1cc(NC(=O)c2ccccn2)ccc1Oc1ncccn1 [Compound 3-9, N-(3-Methoxy-4-(pyrimidin-2-yloxy)phenyl)picolinamide]
	78 to 80 °C	O=C(Nc1ccc(Oc2cccc(F)c2)c(Cl)c1)c1ccccn1 [Compound 3-12, N-(3-Chloro-4-(3-fluorophenoxy)phenyl)picolinamide]
	104 to 105 °C	O=C(Nc1ccc(Oc2ccc(F)cc2)c(Cl)c1)c1ccccn1 [Compound 3-13, N-(3-Chloro-4-(4-fluorophenoxy)phenyl)picolinamide]
< 1 µM	157 to 159 °C	N#Cc1ccc(Oc2ccc(NC(=O)c3ccccn3)cc2Cl)cc1 [Compound 3-15, N-(3-Chloro-4-(4-cyanophenoxy)phenyl)picolinamide]
	223 to 228 °C	N#Cc1cccnc1Oc1ccc(NC(=O)c2ccccn2)cc1Cl [Compound 3-16, N-(3-Chloro-4-(3-cyanopyridin-2-yloxy)phenyl)picolinamide]
	156 to 158 °C	CC(C)C(=O)N1CCN(c2ccc(NC(=O)c3ccccn3)cc2Cl)CC1 [Compound 4-2, N-(3-Chloro-4-(4-isobutyrylpiperazin-1-yl)phenyl)picolinamide]
1 to 10 µM	176 to 179 °C	CCC(=O)N1CCN(c2ccc(NC(=O)c3ccccn3)cc2Cl)CC1 [Compound 4-3, N-(3-Chloro-4-(4-propionylpiperazin-1-yl)phenyl)picolinamide]
1 to 10 µM	161 to 163 °C	O=C(Nc1ccc(N2CCN(C(=O)c3ccccc3)CC2)c(Cl)c1)c1ccccn1 [Compound 4-4, N-(4-(4-Benzoylpiperazin-1-yl)-3-chlorophenyl)picolinamide]
1 to 10 µM	92 to 94 °C	O=C(Nc1ccc(N2CCN(Cc3ccccc3)CC2)c(Cl)c1)c1ccccn1 [Compound 4-5, N-(4-(4-Benzylpiperazin-1-yl)-3-chlorophenyl)picolinamide]
